Results reported in ChEMBL document CHEMBL4138213, “Synthesis and biological characterization of ubenimex-fluorouracil conjugates for anti-cancer therapy” (Eur J Med Chem, 2018).
The source made the active and inactive calls. The rule behind the calls is not given here.

Key:
PLC-PRF-5 [1] = assay: Antiproliferative activity against human PLC/PRF/5 cells after 48 hrs by MTT assay; conditions: PLC-PRF-5, 48 h
PLC-PRF-5 [2] = assay: Antiproliferative activity against human PLC/PRF/5 cells in presence of 5-FU after 48 hrs by MTT assay; format: functional, cell-based; conditions: PLC-PRF-5, 48 h
[3] = Antiproliferative activity against human ES2 cells in presence of 5-FU after 48 hrs by MTT assay; conditions: ES-2, 48 h
U-266 [4] = assay: Antiproliferative activity against human U266 cells after 48 hrs by MTT assay; conditions: U-266, 48 h
U-937 [5] = assay: Antiproliferative activity against human U937 cells in presence of 5-FU after 48 hrs by MTT assay; conditions: U-937, 48 h
U-266 [6] = assay: Antiproliferative activity against human U266 cells in presence of 5-FU after 48 hrs by MTT assay; format: functional, cell-based; conditions: U-266, 48 h
HCT-116 [7] = assay: Antiproliferative activity against human HCT116 cells in presence of 5-FU after 48 hrs by MTT assay; conditions: HCT-116, 48 h
A549 = assay: Antiproliferative activity against human A549 cells in presence of 5-FU after 48 hrs by MTT assay; conditions: A549, 48 h
[8] = Antiproliferative activity against human H7402 cells in presence of 5-FU after 48 hrs by MTT assay; conditions: H7402, 48 h
HepG2 [9] = assay: Antiproliferative activity against human HepG2 cells in presence of 5-FU after 48 hrs by MTT assay; format: functional, cell-based; conditions: HepG2, 48 h
PLC-PRF-5 [10] = assay: Induction of apoptosis in human PLC/PRF/5 cells assessed as early apoptotic cells at 20 uM after 48 hrs by annexin-V-FITC/propidium iodide staining-based flow cytometric method (reference value: 5.82%); format: functional
PLC-PRF-5 [11] = assay: Induction of apoptosis in human PLC/PRF/5 cells assessed as late apoptotic cells at 20 uM after 48 hrs by annexin-V-FITC/propidium iodide staining-based flow cytometric method (reference value: 0.341%); format: functional
PLC-PRF-5 [12] = assay: Induction of apoptosis in human PLC/PRF/5 cells assessed as necrotic cells at 20 uM after 48 hrs by annexin-V-FITC/propidium iodide staining-based flow cytometric method (reference value: 0.106%); format: functional
PLC-PRF-5 [13] = assay: Induction of apoptosis in human PLC/PRF/5 cells assessed as viable cells at 20 uM after 48 hrs by annexin-V-FITC/propidium iodide staining-based flow cytometric method (reference value: 93.7%); format: functional; conditions: PLC-PRF-5, 48 h, read-out: Activity
PLC-PRF-5 [14] = assay: Induction of apoptosis in human PLC/PRF/5 cells assessed as early apoptotic cells at 20 uM in presence of 5-FU after 48 hrs by annexin-V-FITC/propidium iodide staining-based flow cytometric method (reference value: 5.82%); format: functional
PLC-PRF-5 [15] = assay: Induction of apoptosis in human PLC/PRF/5 cells assessed as late apoptotic cells at 20 uM in presence of 5-FU after 48 hrs by annexin-V-FITC/propidium iodide staining-based flow cytometric method (reference value: 0.341%); format: functional
PLC-PRF-5 [16] = assay: Induction of apoptosis in human PLC/PRF/5 cells assessed as necrotic cells at 20 uM in presence of 5-FU after 48 hrs by annexin-V-FITC/propidium iodide staining-based flow cytometric method (reference value: 0.106%); format: functional
PLC-PRF-5 [17] = assay: Induction of apoptosis in human PLC/PRF/5 cells assessed as viable cells at 20 uM in presence of 5-FU after 48 hrs by annexin-V-FITC/propidium iodide staining-based flow cytometric method (reference value: 93.7%); format: functional; conditions: PLC-PRF-5, 48 h, read-out: Activity
PLC-PRF-5 [18] = assay: Downregulation of CD13 expression in human PLC/PRF/5 cells at 10 uM after 48 hrs by flow cytometric method; format: functional, cell-based
PLC-PRF-5 [19] = assay: Downregulation of CD13 expression in human PLC/PRF/5 cells at 10 uM in presence of 5-FU after 48 hrs by flow cytometric method; format: functional, cell-based
[20] = Drug level in Wistar rat plasma treated with (5-fluoro-2,4-dioxo-3,4-dihydropyrimidin1(2H)-yl)methyl-2-((S)-2-((2S,3R)-3-amino-2-hydroxy-4-phenylbut-anamido)-4-methylpentanamido)acetate hydrochloride assessed as peptidase-mediated compound formation at 80 mg/kg, iv by HPLC-MS/MS analysis; format: ADME, organism-based; conditions: in vivo
[21] = AUC (0 to infinity) in Wistar rat at 80 mg/kg, iv after 0.05 to 24 hrs by HPLC-MS/MS analysis; format: ADME, organism-based; design: dose 80 mg/kg, time infinity, route intravenous; conditions: in vivo
[22] = MRT (0 to infinity) in Wistar rat at 80 mg/kg, iv after 0.05 to 24 hrs by HPLC-MS/MS analysis; format: ADME, organism-based; conditions: Wistar, in vivo
Rattus norvegicus = assay: VRT (0 to infinity) in Wistar rat at 80 mg/kg, iv after 0.05 to 24 hrs by HPLC-MS/MS analysis; format: ADME, organism-based; conditions: in vivo
[23] = Apparent clearance in Wistar rat at 80 mg/kg, iv after 0.05 to 24 hrs by HPLC-MS/MS analysis; format: ADME, organism-based; conditions: in vivo, read-out: CL(app) (converted)
[24] = Volume of distribution during elimination phase in Wistar rat at 80 mg/kg, iv after 0.05 to 24 hrs by HPLC-MS/MS analysis; format: ADME, organism-based; conditions: in vivo, read-out: Vz
[25] = Terminal Half life in Wistar rat at 80 mg/kg, iv after 0.05 to 24 hrs by HPLC-MS/MS analysis; format: ADME, organism-based; conditions: Wistar, in vivo, read-out: beta t1/2 (converted)
[26] = Cmax in Wistar rat at 80 mg/kg, iv after 0.05 to 24 hrs by HPLC-MS/MS analysis; format: ADME, organism-based; design: dose 80 mg/kg, route intravenous; conditions: in vivo
HUVEC = conditions: Homo sapiens, 30 uM
U-937 [27] = assay: cells; conditions: Homo sapiens, U-937, 48 h
Description: Antiproliferative activity against human U937 cells after 48 hrs by MTT assay

HCT-116 [28] = assay: cells; conditions: Homo sapiens, HCT-116, 48 h
HepG2 [29] = assay: cells; conditions: Homo sapiens, HepG2, 48 h

- IC50 (U-937 [5]): 9.56 µM
- IC50 (HCT-116 [7]): 44.1 µM
- IC50 (A549): 15.9 µM
- IC50 (HepG2 [9]): 14.5 µM
- Drug metabolism [20]: Metabolite_Detected
- AUC(0-inf) [21]: 11500 ng·h/mL
- MRT inf [22]: 3.44 h
- VRT (Rattus norvegicus): 13.087 hr2
- clearance [23]: 116 mL/min/kg
- Vd [24]: 34.2 L/kg
- half-life [25]: 3.4 h
- Cmax [26]: 2300 ng/mL
- IC50 (U-937 [27]): 143 µM
- IC50 (HCT-116 [28]): 358 µM
- IC50 (HepG2 [29]): > 500 µM
Structure (SMILES): CC(C)C[C@H](NC(=O)[C@@H](O)[C@H](N)Cc1ccccc1)C(=O)O [UBENIMEX]
- IC50 (PLC-PRF-5 [1]): > 500 µM
- IC50 (PLC-PRF-5 [2]): 22.8 µM
- IC50 [3]: 37.1 µM
- IC50 (U-266 [4]): > 500 µM
- IC50 (U-266 [6]): 43.5 µM
- IC50 [8]: 17.6 µM
- Activity (PLC-PRF-5 [10]): 13%
- Activity (PLC-PRF-5 [11]): 3.59%
- Activity (PLC-PRF-5 [12]): 0.01%
- viability at 20 µM (PLC-PRF-5 [13]): 83.4%
- Activity (PLC-PRF-5 [14]): 33.3%
- Activity (PLC-PRF-5 [15]): 2.38%
- Activity (PLC-PRF-5 [16]): 0%
- viability at 20 µM (PLC-PRF-5 [17]): 64.3%
- Activity (PLC-PRF-5 [18]): Active
- Activity (PLC-PRF-5 [19]): Active
- inhibition (HUVEC): Active
